# Assay results as given in patent US9181199B2, “Uracil derivatives and use thereof” (RESprotect GmbH, priority 2008, dated 2015).
row,melting point [°C],SMILES
1,213 to 215,C[Si](C)(C)C#Cc1cn(Cc2ccccc2)c(=O)[nH]c1=O
2,131,"O=c1c(C=CBr)cn(C(c2ccccc2)c2ccccc2)c(=O)n1Cc1ccccc1 [compound A, 1-Benzhydryl-3-benzyl-5-(2-bromovinyl)uracil]"
3,183,"O=c1[nH]c(=O)n(Cc2ccccc2)cc1C=CBr [compound B, 1-Benzyl-5-(2-bromovinyl)uracil]"
4,137,"C=CCn1cc(C=CBr)c(=O)[nH]c1=O [compound C, 1-Allyl-5-(2-bromovinyl)uracil]"
5,162 to 165,"O=c1[nH]c(=O)n(Cc2ccccc2)cc1C#CBr [compound D, 1-Benzyl-5-bromoethynyluracil]"
6,165,"O=c1[nH]c(=O)n(C(c2ccccc2)c2ccccc2)cc1-c1c[nH]nn1 [compound F, 1-Benzhydryl-5-(1H-1,2,3-triazol-4-yl)uracil]"
7,261,"N#CC=Cc1cn(C(c2ccccc2)c2ccccc2)c(=O)[nH]c1=O [compound G, 1-Benzhydryl-5-(2-cyanovinyl)uracil]"
8,154 to 156,"C=CCn1cc(C=C(Br)Br)c(=O)[nH]c1=O [compound H, 1-Allyl-5-(2,2-dibromovinyl)uracil]"
9,164 to 168,"C=CCn1cc(C#CBr)c(=O)[nH]c1=O [compound I, 1-Allyl-5-bromoethynyluracil]"
10,205 to 206,"O=c1[nH]c(=O)n(Cc2ccccc2)cc1C=C(Br)Br [compound L, 1-Benzyl-5-(2,2-dibromovinyl)uracil]"
11,179 to 183,"CC(c1ccccc1)n1cc(C=C(Br)Br)c(=O)[nH]c1=O (stereo not shown) [compound M, 1-(1-Phenylethyl)-5-(2,2-dibromovinyl)uracil]"
12,163 to 167,"CC(c1ccccc1)n1cc(C#CBr)c(=O)[nH]c1=O (stereo not shown) [compound N, 1-(1-Phenylethyl)-5-bromoethynyluracil]"
13,190 to 193,"C#Cc1cn(Cc2ccccc2)c(=O)[nH]c1=O [compound R, 1-Benzyl-5-ethynyluracil]"
